Measured values as given in patent US6362175B1, “Porphyrin compounds for imaging tissue oxygen” (The Trustees of the University of Pennsylvania, priority 1991, dated 2002).
Values belong to the compound of their own block, whether it stands above or below them.

What was measured:
Assay type in all cases: physicochemical
[1] = Absorption spectra (Soret and Q bands)
Procedure: (§1) Absorption spectra were recorded on a Beckman DU-64 spectrophotometer. Emission spectra (fluorescence and phosphorescence) were recorded using an AMINCO SPF-500C spectrofluorimeter. ^1H NMR spectra were recorded using a Brucker 300 MHz instrument. Phosphorescence lifetime measurements were performed using a light guide phosphorimeter designed by applicants. HPLC analysis of reaction mixtures was carried out on a SpectraPhysics 8800 gradient system, using an Adsorbosphere HS C4 100×4.6 mm column and methanol:water mixture as a mobile phase.

[2] = Quenching of phosphorescence by oxygen (Stern-Volmer quenching constant)
Source text: Phosphorescence of certain chemical compounds is quenched by oxygen according to the Stern-Volmer relationship which is stated as follows:
where T0 and T are the phosphorescence lifetimes in the absence of oxygen, PO2 is the oxygen pressure for a lifetime of T, and kQ is the quenching constant. The constant kQ is related to the frequency of collisions between the excited triplet state molecule and molecular oxygen and the probability of energy transfer occurring when these molecules collide.
(§2) An enzymatic system (glucose-glucose oxidase-catalase) was used for deoxygenation of aqueous solutions and N2-O2 gas mixtures containing either 2.89% of oxygen or 20% oxygen (air) were used for calibration and measurements of the quenching constants.
as §1

[3] = Phosphorescence lifetime at zero oxygen, light guide phosphorimeter
Source text: (§3) Solvents for phosphorescence measurements were degassed by three freeze-pump-thaw cycles and stored in a vacuum over sodium benzophenone ketyl (THF) or 4 Å molecular sieves (DMF). The solvents were vacuum transferred immediately prior to the phosphorescence measurements and samples were sealed under high vacuum.
as §2, §1

[4] = Phosphorescence spectra of deoxygenated samples; conditions: solvent THF, 25 °C
Procedure: as §3, §1
Phosphorescence of a series of metal-TBP compounds was detected using constant irradiation of samples with light wavelengths at their Q and Soret bands. To observe the phosphorescence phenomena and to record phosphorescence spectra, the samples were intensively deoxygenated. Accordingly, highly degassed dimethylformamide (DMF) or THF were used as solvents. The phosphorescence spectra of LuTPhTBP and PdTPhTBP are depicted in FIGS. 5 and 6, respectively.

[5] = solvent DMF, TBP/TPhTBP compounds
[6] = solvent DMF, TPhTNP compounds, average position of split Soret band
[7] = Phy. sol. (aqueous, pH 7.0), 38 °C
[8] = Phy. sol. adjusted to pH 7.4, 38 °C

Q-band ([1]; solvent DMF): 708 nm
Soret band [1, 6]: 440 nm
Compound: [OH][La]1[n]2c3c4cc5ccccc5cc4c2C(c2ccccc2)=C2N=C(C(c4ccccc4)=c4c5cc6ccccc6cc5c([n]41)=C(c1ccccc1)C1=NC(=C3c3ccccc3)c3cc4ccccc4cc31)c1cc3ccccc3cc12 [La(OH)TPhTNP]

Q-band ([1]; solvent DMF): 709 nm
Soret band [1, 6]: 440 nm
Compound: [OH][Lu]1[n]2c3c4cc5ccccc5cc4c2C(c2ccccc2)=C2N=C(C(c4ccccc4)=c4c5cc6ccccc6cc5c([n]41)=C(c1ccccc1)C1=NC(=C3c3ccccc3)c3cc4ccccc4cc31)c1cc3ccccc3cc12 [Lu(OH)TPhTNP]

Quenching constant at a temperature of 38° C. [2, 7]: 194 Torr^−1s^−1
Phosphorescent lifetime at zero-oxygen concentration [3, 7]: 431 μs
Q-band ([1]; solvent water): 615 nm
Soret band ([1]; solvent water): 409 nm
Compound: O=S(=O)(N[C@H]1C(O)O[C@H](CO)[C@@H](O)[C@@H]1O)c1ccc(C2=C3N=C(C(c4ccc(S(=O)(=O)N[C@H]5C(O)O[C@H](CO)[C@@H](O)[C@@H]5O)cc4)=c4c5ccccc5c5[n]4[Pd][n]4c2c2ccccc2c4C(c2ccc(S(=O)(=O)N[C@H]4C(O)O[C@H](CO)[C@@H](O)[C@@H]4O)cc2)=C2N=C(C=5c4ccc(S(=O)(=O)N[C@H]5C(O)O[C@H](CO)[C@@H](O)[C@@H]5O)cc4)c4ccccc42)c2ccccc23)cc1 (stereo partly drawn) [PdTPhTBP (glucosamine)4]

Phosphorescent lifetime at zero-oxygen concentration ([3]; solvent THF, 25 °C): 127 μs
Phosphorescence maximum [4]: 784 nm
Q-band ([1]; solvent CHCl3): 610 nm
Soret band ([1]; solvent CHCl3): 420 nm
Compound: c1ccc(C2=C3N=C(C(c4ccccc4)=c4c5ccccc5c5[n]4[Pd][n]4c2c2ccccc2c4C(c2ccccc2)=C2N=C(C=5c4ccccc4)c4ccccc42)c2ccccc23)cc1 [PdTPhTBP, palladium meso-tetraphenyltetrabenzoporphyrin]

Phosphorescent lifetime at zero-oxygen concentration ([3]; solvent THF, 25 °C): 165 μs
Q-band ([1]; solvent DMF): 694 nm
Soret band [1, 6]: 415 nm
Compound: c1ccc(C2=C3N=C(C(c4ccccc4)=c4c5cc6ccccc6cc5c5[n]4[Pd][n]4c2c2cc6ccccc6cc2c4C(c2ccccc2)=C2N=C(C=5c4ccccc4)c4cc5ccccc5cc42)c2cc4ccccc4cc23)cc1 [PdTPhTNP]

Q-band ([1]; solvent DMF): 700 nm
Soret band [1, 6]: 425 nm
Compound: c1ccc(C2=C3N=C(C(c4ccccc4)=c4c5cc6ccccc6cc5c5[n]4[Pt][n]4c2c2cc6ccccc6cc2c4C(c2ccccc2)=C2N=C(C=5c4ccccc4)c4cc5ccccc5cc42)c2cc4ccccc4cc23)cc1 [PtTPhTNP]

Q-band ([1]; solvent Acetone): 642 nm
Soret band ([1]; solvent Acetone): 438 nm
Compound: c1ccc(C2=C3N=C(C(c4ccccc4)=c4c5ccccc5c5[n]4[Sn][n]4c2c2ccccc2c4C(c2ccccc2)=C2N=C(C=5c4ccccc4)c4ccccc42)c2ccccc23)cc1 [SnTPhTBP]

Q-band ([1]; solvent Acetone): 630 nm
Soret band ([1]; solvent Acetone): 431 nm
Compound: [OH][Y]1[n]2c3c4ccccc4c2C(c2ccccc2)=C2N=C(C(c4ccccc4)=c4c5ccccc5c([n]41)=C(c1ccccc1)C1=NC(=C3c3ccccc3)c3ccccc31)c1ccccc12 [Y(OH)TPhTBP]

Phosphorescent lifetime at zero-oxygen concentration ([3]; solvent DMF, 25 °C): 172 μs
Compound: lutetium (Lu) tetraphenyltetranaphthoporphyrin [LuTPhTNP]

Continued, compound first:

Compound: [OH][La]1[n]2c3c4ccccc4c2C(c2ccccc2)=C2N=C(C(c4ccccc4)=c4c5ccccc5c([n]41)=C(c1ccccc1)C1=NC(=C3c3ccccc3)c3ccccc31)c1ccccc12 [La(OH)TPhTBP]
Q-band ([1]; solvent DMF): 633 nm
Soret band [1, 5]: 432 nm

Compound: [OH][Lu]1[n]2c3c4ccccc4c2C(c2ccccc2)=C2N=C(C(c4ccccc4)=c4c5ccccc5c([n]41)=C(c1ccccc1)C1=NC(=C3c3ccccc3)c3ccccc31)c1ccccc12 [Lu(OH)TPhTBP, lutetium (hydroxy) meso-tetraphenyltetrabenzoporphyrin]
Q-band ([1]; solvent Acetone): 628 nm
Soret band ([1]; solvent Acetone): 423 nm

Compound: c1ccc(C2=C3N=C(C(c4ccccc4)=c4c5ccccc5c5[n]4[Pb][n]4c2c2ccccc2c4C(c2ccccc2)=C2N=C(C=5c4ccccc4)c4ccccc42)c2ccccc23)cc1 [PbTPhTBP]
Q-band ([1]; solvent Acetone): 663 nm
Soret band ([1]; solvent Acetone): 487 nm

Compound: O=C(O)CNS(=O)(=O)c1ccc(C2=C3N=C(C(c4ccc(S(=O)(=O)NCC(=O)O)cc4)=c4c5ccccc5c5[n]4[Pd][n]4c2c2ccccc2c4C(c2ccc(S(=O)(=O)NCC(=O)O)cc2)=C2N=C(C=5c4ccc(S(=O)(=O)NCC(=O)O)cc4)c4ccccc42)c2ccccc23)cc1 [PdTPhTBP (glyc)4]
Quenching constant at a temperature of 38° C. [2, 7]: 186 Torr^−1s^−1
Phosphorescent lifetime at zero-oxygen concentration [3, 7]: 408 μs
Q-band ([1]; solvent water): 620 nm
Soret band ([1]; solvent water): 421 nm

Compound: O=C(O)Cc1ccc(NS(=O)(=O)c2ccc(C3=C4N=C(C(c5ccc(S(=O)(=O)Nc6ccc(CC(=O)O)cc6)cc5)=c5c6ccccc6c6[n]5[Pd][n]5c3c3ccccc3c5C(c3ccc(S(=O)(=O)Nc5ccc(CC(=O)O)cc5)cc3)=C3N=C(C=6c5ccc(S(=O)(=O)Nc6ccc(CC(=O)O)cc6)cc5)c5ccccc53)c3ccccc34)cc2)cc1 [PdTPhTBP (sulfonamide)4]
Quenching constant at a temperature of 38° C. [2, 8]: 185 Torr^−1s^−1
Phosphorescent lifetime at zero-oxygen concentration [3, 8]: 377 μs
Q-band ([1]; solvent water): 630 nm
Soret band ([1]; solvent water): 415 nm

Compound: c1ccc(C2=C3N=C(C(c4ccccc4)=c4c5ccccc5c5[n]4[Pt][n]4c2c2ccccc2c4C(c2ccccc2)=C2N=C(C=5c4ccccc4)c4ccccc42)c2ccccc23)cc1 [PtTPhTBP]
Q-band ([1]; solvent DMF): 630 nm
Soret band [1, 5]: 437 nm

Compound: [Zn].c1ccc2c(c1)-c1cc3[nH]c(cc4nc(cc5[nH]c(cc-2n1)c1ccccc51)-c1ccccc1-4)c1ccccc31 [ZnTBP (Pyridine)2, zinc tetrabenzoporphyrin]
Q-band ([1]; solvent DMF): 624 nm
Soret band [1, 5]: 425 nm

Compound: c1ccc(C2=C3N=C(C(c4ccccc4)=c4c5ccccc5c5[n]4[Zn][n]4c2c2ccccc2c4C(c2ccccc2)=C2N=C(C=5c4ccccc4)c4ccccc42)c2ccccc23)cc1.c1ccncc1.c1ccncc1 [ZnTPhTBP (Pyridine)2]
Q-band ([1]; solvent Acetone): 625 nm
Soret band ([1]; solvent Acetone): 428 nm
